The record followed here is patent publication US20230212208A1, “Colour Tunable Luminescent Bidentate Platinum (II) Complexes for Probing Mismatch DNA” (THE UNIVERSITY OF HONG KONG, priority 2019, published 2023).

Assay [1] concerns hairpin CC mismatched DNA with different adjacent base pairs. To be noted: Pt(II) complex to DNA ratio 1.0. From the text:
Especially, the 5′- . . . […] GCA . . . -3′ (SEQ ID NO: 24), 5′- . . . GCC . . . -3′ (SEQ ID NO: 25), GCG . . . -3′ (SEQ ID NO: 26) and 5′- . . .

Assay [2] has as its system cognate matched DNA (CG match, SEQ ID NO: 3). To be noted: 20 μM in Tris buffer pH 7.1, 1-fold matched DNA. As for the experimental part:
The emission spectra for detection of CC mismatched DNA and matched DNA were determined (FIGS. 2A and 2B).

For assay [3], the system named is AA hairpin mismatched DNA (SEQ ID NO: 7). To be noted: 20 μM in Tris buffer, λex=410 nm, AA hairpin mismatch. An excerpt:
(§1) The emission increased around 3-fold for CA (SEQ ID NO: 5) and TC hairpin mismatched DNA (SEQ ID NO: 6), and 2-fold for AA hairpin mismatched DNA (SEQ ID NO: 7) (FIG. 5A).

The subject of assay [4] is CA hairpin mismatched DNA (SEQ ID NO: 5). The conditions noted are these: 20 μM in Tris buffer, λex=410 nm, CA hairpin mismatch.
Text: as §1

Assay [5] has as its system TC hairpin mismatched DNA (SEQ ID NO: 6). The conditions noted are these: 20 μM in Tris buffer, λex=410 nm, TC hairpin mismatch.
Text: as §1

Read-outs that look alike come from different tables or passages of the source.

In the case of “Pt(II)(benzo[h]quinolone-1-benzyl-3-butylimidazolium bromide [PtCN2]”, the “emission intensity at 497 nm over matched DNA” value in assay [1] (CC mismatch 5'-ACC-3' (SEQ ID NO: 17) vs matched DNA), in assay [1] (CC mismatch 5'-GCA-3' (SEQ ID NO: 24) vs matched DNA), in assay [1] (CC mismatch 5'-GCC-3' (SEQ ID NO: 25) vs matched DNA) and in assay [1] (CC mismatch 5'-GCG-3' (SEQ ID NO: 26) vs matched DNA) was 5 fold in each case. For the same substance, the “emission response at 497 nm, higher than matched DNA” value in assay [1] (CC mismatch 5'-GCT-3' (SEQ ID NO: 27) vs matched DNA (SEQ ID NO: 32)) stood at 6 fold. In addition, in assay [2], the “emission enhancement at high-energy emission” value was “no significant emission enhancement”. Also, the “emission increase at high-energy fingerprint spectrum” value in assay [3] is listed as approximately 2 fold; in assay [4] it was “around 3 fold”; in assay [5] it was “around 3 fold”.
